From patent publication US10919943B2, “Mutant proteins enabling agrochemical control of plant gene expression” (The Regents of the University of California, priority 2016, dated 2021)

Assays:
[1] = system: pMANDI-UAS-GFP-LEAFY; assay: Mandipropamid induction of GFP-LEAFY in T1 leaf tissue, GFP fluorescence; assay type: in vivo, Arabidopsis; conditions: 10 μM mandipropamid, 24 hours; FIG. 15B
Source text: To test the efficacy of our transcriptional circuit in planta, we constructed a 3 component system for inducing genes of interest using the mandipropamid mediated interaction of a BD-PYR1*/AD-HAB1* to drive genes of interest from a GAL4-responsive UAS (FIG. 15A). To do this we constructed a BD-PYR1*^-MANDI fusion protein and NLSSV40-VP64-HAB1*-N7 fusion protein and used these to drive gene expression from a synthetic UAS-minimal-35S promoter. To make the desired vector, the three required components were separately cloned into vectors that provided necessary elements (such as the Gal4 DNA binding domain, or 35S-promoter-nos-terminator cassettes). After this, the three components were combined into a plant binary transformation vector.
To combine all three components into a single vector, a 35S::NLS-VP64-HAB1*-N7-Nos-terminator cassette was PCR amplified from pVP64-HAB1*-N7 and cloned into pBD-PYR1* into its SacI site, upstream of the BD-PYR1* expression cassette, yielding pAD-BD. […]
Having developed a simple induction system, we tested it by examining the expression of the flowering regulator LEAFY. […] 24 hours after transfer, both tissues were examined using a GFP fluorescence dissecting scope and documented under identical camera and microscope settings (FIG. 15B).

[2] = system: 35S::GFP-PYR1*^-MANDI transgenic plants; assay: Thermography of leaf temperature after chemical treatment; assay type: in vivo, Arabidopsis thaliana; conditions: for leaf temperature: T1 plants, 24 hours after application, FIG. 10
Source text: To examine the effects of over-expressing either PYR1*^-MANDI or HAB1* in Arabidopsis thaliana, we made 35S-driven GFP-PYR1*^-MANDI and GFP-HAB1* constructs by cloning the mutant genes into the binary vector pEGAD, and the resultant plasmids were transformed into Agrobacterium tumefaciens. The floral dip method was used to generate T0 transgenic seed for both constructs and the T0 seed was germinated in soil containing glufosinate to select for transgenic T1 plants. The PYR1*^-MANDI T1 plants isolated were grown for ˜5 weeks and then treated with mandipropamid, using comparisons to wild type Columbia plants and a previously constructed 35S::PYR1^MANDI transgenic strain as controls. The treated plants were thermographed 24 hours after chemical applications to examine leaf temperature, which increases after ABA responses are activated, due to reduced transpiration. To examine different mandipropamid concentrations, the plants were first treated with 1 μM mandipropamid and then 3 days later were treated again with 10 μM mandipropamid.
Several T1 transgenic seed were propagated and 3 homozygous single insertion transgenic lines identified by glufosinate segregation patterns in the T3 seedlings. GFP-PYR1*^-MANDI protein levels were established by western blotting using an anti-GFP antibody, as described above and the three lines had similar levels of protein expression.

C#CCOc1ccc(CCNC(=O)C(OCC#C)c2ccc(Cl)cc2)cc1OC (stereo not shown) [mandipropamid]
GFP-LEAFY induction [1]: GFP-LEAFY induction in response to mandipropamid | leaf temperature ([2]; 1 μM mandipropamid): Neither of the treatments elicited substantial alterations in leaf temperature | leaf temperature ([2]; 10 μM mandipropamid (3 days after 1 μM)): Neither of the treatments elicited substantial alterations in leaf temperature | leaf temperature in comparison to wild type control plants ([2]; two homozygous lines, 5 μM mandipropamid, FIG. 11): did not reveal differences in leaf temperature
